{"source": "patent US20230157319A1", "about": "“SUPPLEMENTS AND COMPOSITIONS CONTAINING AMINO ACIDS AND IGF-1 AND METHODS OF USE” (PURETEIN BIOSCIENCE LLC, priority 2020, published 2023)", "system": "porcine satellite cells", "assay": "myotube size of differentiated porcine satellite cells, 72 hour treatment", "type": "cell-based", "conditions": "for myotube size compared to the control treatment: each alone in DM: 5 ng/mL IGF-1, 4 mM L-glutamine, 10 mM L-lysine, 10 μM L-methionine, 72 hour, FIG. 1; for myotube size compared to the control treatment / myotube growth on addition to the combination: 1 mM L-leucine, 1 mM L-arginine; for useful inclusion (minimum amount required to produce the maximal growth response): titrated within the combination with 5 ng/mL active IGF-1, FIGS. 3-5; for myotube growth on addition to the combination: titrated 0.5-3 mM into 5 ng/mL IGF-1, 3 mM L-glutamine, FIGS. 6 and 7"}
{"compound": "N=C(N)NCCC[C@H](N)C(=O)O", "note": "[L-arginine]", "values": [{"measurement": "myotube size compared to the control treatment", "value": "more profound growth response of myotubes"}, {"measurement": "useful inclusion (minimum amount required to produce the maximal growth response)", "value": 1, "unit": "mM"}]}
{"compound": "NC(=O)CC[C@H](N)C(=O)O", "note": "[L-glutamine]", "values": [{"measurement": "myotube size compared to the control treatment", "value": "more profound growth response of myotubes"}, {"measurement": "useful inclusion (minimum amount required to produce the maximal growth response)", "value": 3, "unit": "mM"}]}
{"compound": "CC(C)C[C@H](N)C(=O)O", "note": "[L-leucine]", "values": [{"measurement": "myotube size compared to the control treatment", "value": "more profound growth response of myotubes"}, {"measurement": "useful inclusion (minimum amount required to produce the maximal growth response)", "value": 1, "unit": "mM"}]}
{"compound": "NCCCC[C@H](N)C(=O)O", "note": "[L-lysine]", "values": [{"measurement": "myotube size compared to the control treatment", "value": "increase the myotube size compared to the control treatment"}, {"measurement": "myotube growth on addition to the combination", "value": "did not provide any increase in myotube growth"}]}
{"compound": "CSCC[C@H](N)C(=O)O", "note": "[L-methionine]", "values": [{"measurement": "myotube size compared to the control treatment", "value": "increase the myotube size compared to the control treatment"}, {"measurement": "myotube growth on addition to the combination", "value": "did not provide any increase in myotube growth"}]}
{"compound": "insulin-like growth factor 1 [IGF-1]", "values": [{"measurement": "myotube size compared to the control treatment", "value": "increase the myotube size compared to the control treatment"}]}
